Structures can show the parent of a compound that is named as a salt. Values belong to the molecule of their own block, whether it stands above or below them.
Experiments:
Osh4 [1] = biological target: T1, Osh4 (Saccharomyces cerevisiae, UniProt P35844); assay: Microscale thermophoresis (MST) ligand binding; details: Osh4, pH 7.5, 50 nM protein
T1 construct: made in house; host or cells: E. coli BL21
Description: (§1) This polyhistidine-tagged protein is site-specific fluorescently labeled (RED-tris-NTA, green star). The labeled protein is incubated with varying concentrations of ligand, loaded into glass capillaries, the capillaries are locally heated with an infrared (IR) laser, generating a temperature gradient, and the rate of temperature-induced diffusion of the ligand-bound protein was recorded and plotted as a function of ligand concentration. B, sterol binding by Pry1, NPC2, Osh4, and STARD1 measured by MST. […] Binding by Pry1, Osh4 was assessed at pH 7.5, STARD1 at pH 8.5, and NPC2 binding affinity was determined at pH 5.5. […] Data shown in panelB represent the mean ± SD of three independent experiments. MST, microscale thermophoresis; NPC2, Niemann-Pick type C2; Pry, pathogen-related in yeast; STARD1, steroidogenic acute regulatory protein 1.
(§2) Purified proteins were fluorescently labeled using the RED-tris-NTA His tag protein labeling kit (NanoTemper Technologies) ([52]). […] Binding by Pry1, Osh4, and the StARkin domains was assessed at pH 7.5, STARD1 at pH 8.5, and NPC2 binding affinity was determined at pH 5.5.
(§3) Samples were centrifuged for 5 min at 15,000g at 4 °C and loaded into standard MST capillaries. The dissociation constant Kd was determined by plotting the fraction of ligand-bound protein against the logarithm of the ligand concentrations, using Prism software (GraphPad).

Pry1 [2] = biological target: T2, Pry1 (Saccharomyces cerevisiae, UniProt P47032); assay: Microscale thermophoresis (MST) ligand binding; details: Pry1, pH 7.5, 50 nM protein
T2 construct: made in house; host or cells: E. coli BL21
T2 sequence (P47032 20-299): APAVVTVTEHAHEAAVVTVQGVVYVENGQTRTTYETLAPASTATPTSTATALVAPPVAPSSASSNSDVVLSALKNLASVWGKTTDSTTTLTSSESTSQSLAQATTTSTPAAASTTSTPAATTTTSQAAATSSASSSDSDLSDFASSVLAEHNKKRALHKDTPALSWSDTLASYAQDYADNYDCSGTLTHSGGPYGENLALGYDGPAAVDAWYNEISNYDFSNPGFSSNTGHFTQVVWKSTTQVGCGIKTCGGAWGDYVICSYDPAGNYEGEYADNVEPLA
Description: as §1, §2, §3

STARD1 = biological target: T3, STARD1 (Homo sapiens, UniProt P49675); assay: Microscale thermophoresis (MST) ligand binding; details: STARD1, pH 8.5, 50 nM protein
T3 construct: made in house; host or cells: E. coli BL21
T3 sequence (P49675 64-285): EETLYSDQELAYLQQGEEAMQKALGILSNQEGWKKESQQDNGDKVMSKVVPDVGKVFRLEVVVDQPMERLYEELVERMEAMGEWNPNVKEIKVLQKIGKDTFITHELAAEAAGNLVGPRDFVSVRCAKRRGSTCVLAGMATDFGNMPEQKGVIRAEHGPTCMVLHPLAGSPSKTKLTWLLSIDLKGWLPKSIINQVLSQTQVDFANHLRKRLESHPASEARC
Description: as §1, §2, §3

Lam5 (ΔTMD) = biological target: T4, Lam5 (ΔTMD) (Saccharomyces cerevisiae, UniProt P43560); assay: Microscale thermophoresis (MST) ligand binding; details: soluble Lam5 (ΔTMD)
T4 construct: Lam5 (1–633 aa), and Lam6 (1–621 aa); made in house; host or cells: E. coli BL21
T4 sequence (P43560 1-633): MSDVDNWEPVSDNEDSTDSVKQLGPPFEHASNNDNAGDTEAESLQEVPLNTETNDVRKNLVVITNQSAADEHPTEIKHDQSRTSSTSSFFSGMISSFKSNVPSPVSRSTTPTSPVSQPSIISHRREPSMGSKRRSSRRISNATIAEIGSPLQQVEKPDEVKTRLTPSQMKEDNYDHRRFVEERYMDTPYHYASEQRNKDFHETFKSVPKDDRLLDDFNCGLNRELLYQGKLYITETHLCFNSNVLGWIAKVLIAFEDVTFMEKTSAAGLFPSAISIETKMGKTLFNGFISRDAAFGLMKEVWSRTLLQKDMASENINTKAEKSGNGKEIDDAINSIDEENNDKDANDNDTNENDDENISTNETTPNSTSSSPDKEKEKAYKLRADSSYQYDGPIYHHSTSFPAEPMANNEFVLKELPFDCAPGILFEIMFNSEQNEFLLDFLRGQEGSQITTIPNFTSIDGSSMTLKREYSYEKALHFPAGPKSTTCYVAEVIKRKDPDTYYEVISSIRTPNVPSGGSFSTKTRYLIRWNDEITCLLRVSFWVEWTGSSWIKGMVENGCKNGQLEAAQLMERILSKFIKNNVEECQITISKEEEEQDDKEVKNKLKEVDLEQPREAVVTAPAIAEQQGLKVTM
From the text: (§4) To corroborate these in vivo findings, we expressed soluble versions (ΔTMD) of Lam5 and Lam6 as polyhistidine-tagged proteins and assessed their sterol binding capacity using MST.

Lam6 (ΔTMD) = biological target: T5, Lam6 (ΔTMD) (Saccharomyces cerevisiae, UniProt Q08001); assay: Microscale thermophoresis (MST) ligand binding; details: soluble Lam6 (ΔTMD)
T5 construct: Lam5 (1–633 aa), and Lam6 (1–621 aa); made in house; host or cells: E. coli BL21
T5 sequence (Q08001 1-621): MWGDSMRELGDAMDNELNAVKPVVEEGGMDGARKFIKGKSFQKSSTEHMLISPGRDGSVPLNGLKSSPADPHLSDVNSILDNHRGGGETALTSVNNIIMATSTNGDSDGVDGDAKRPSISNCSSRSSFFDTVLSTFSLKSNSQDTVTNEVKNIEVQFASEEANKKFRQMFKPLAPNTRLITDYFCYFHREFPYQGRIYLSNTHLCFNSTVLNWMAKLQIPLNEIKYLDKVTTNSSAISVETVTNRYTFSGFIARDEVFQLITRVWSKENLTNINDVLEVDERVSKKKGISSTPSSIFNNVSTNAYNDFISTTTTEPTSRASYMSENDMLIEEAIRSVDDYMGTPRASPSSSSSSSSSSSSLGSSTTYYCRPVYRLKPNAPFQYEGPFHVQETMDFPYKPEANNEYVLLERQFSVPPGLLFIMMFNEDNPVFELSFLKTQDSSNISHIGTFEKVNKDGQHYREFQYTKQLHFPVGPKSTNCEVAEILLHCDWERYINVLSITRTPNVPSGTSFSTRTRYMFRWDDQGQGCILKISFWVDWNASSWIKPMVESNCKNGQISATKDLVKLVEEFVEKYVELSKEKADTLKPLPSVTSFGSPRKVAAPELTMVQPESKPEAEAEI
From the text: as §4

Lam4^StARkin1 = biological target: T6, Lam4^StARkin1 (Saccharomyces cerevisiae, UniProt P38800); assay: Microscale thermophoresis (MST) ligand binding; details: Lam4^StARkin1, pH 7.5
T6 construct: both StARkin domains of Lam4 (StARkin1, 758–930 aa, 20.3 kDa); made in house; host or cells: E. coli BL21
From the text: (§5) To further characterize these domains, we expressed and purified Ysp1^StARkin, Sip3^StARkin, Lam4^StARkin1, and Lam4^StARkin2 from bacterial cells and assessed their sterol-binding affinities using MST.

Lam4^StARkin2 = biological target: T7, Lam4^StARkin2 (Saccharomyces cerevisiae, UniProt P38800); assay: Microscale thermophoresis (MST) ligand binding; details: Lam4^StARkin2, pH 7.5
T7 construct: StARkin2, 967–1139 aa, 34.6 kDa; made in house; host or cells: E. coli BL21
From the text: as §5

Ysp1^StARkin = biological target: T8, Ysp1^StARkin (Saccharomyces cerevisiae, UniProt P38851); assay: Microscale thermophoresis (MST) ligand binding; details: pH 7.5
T8 construct: Ysp1^StARkin (765–978 aa, 26.9 kDa); made in house; host or cells: E. coli BL21
T8 sequence (P38851 765-978): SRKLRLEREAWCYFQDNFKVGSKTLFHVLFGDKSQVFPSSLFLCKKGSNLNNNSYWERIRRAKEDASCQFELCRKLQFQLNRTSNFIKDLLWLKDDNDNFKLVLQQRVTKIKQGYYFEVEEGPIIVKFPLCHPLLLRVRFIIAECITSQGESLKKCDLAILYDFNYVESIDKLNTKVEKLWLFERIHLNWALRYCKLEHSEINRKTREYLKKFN
From the text: as §5

Sip3^StARkin = biological target: T9, Sip3^StARkin (Saccharomyces cerevisiae, UniProt P38717); assay: biochemical; assay type: binding
T9 construct: Sip3^StARkin (733–1002 aa, 32.5 kDa); made in house; host or cells: Lactococcus lactis DML1
T9 sequence (P38717 733-1002): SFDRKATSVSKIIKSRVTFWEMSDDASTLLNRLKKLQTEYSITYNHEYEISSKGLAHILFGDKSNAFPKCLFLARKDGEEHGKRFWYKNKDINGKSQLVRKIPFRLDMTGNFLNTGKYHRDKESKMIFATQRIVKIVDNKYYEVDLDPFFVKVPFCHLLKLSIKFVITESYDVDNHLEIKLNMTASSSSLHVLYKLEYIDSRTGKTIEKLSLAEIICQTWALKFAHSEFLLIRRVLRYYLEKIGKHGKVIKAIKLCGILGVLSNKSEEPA
Description: as §5, §2, §3

NPC2 = biological target: T10, NPC2 (Homo sapiens, UniProt P61916); assay: In vitro radioligand binding assay with [3H]-cholesterol; details: NPC2, pH 5.5, 100 pmol protein
T10 construct: made in house; host or cells: E. coli
T10 sequence (P61916 20-151): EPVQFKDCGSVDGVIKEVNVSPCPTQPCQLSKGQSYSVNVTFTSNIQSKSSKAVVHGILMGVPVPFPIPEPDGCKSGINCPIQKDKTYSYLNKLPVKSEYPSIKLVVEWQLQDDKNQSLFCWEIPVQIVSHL
From the text: (§6) To validate these in vivo findings with independent in vitro approaches, Pry1, NPC2, Osh4, and STARD1 were expressed as C terminally polyhistidine-tagged proteins in Escherichia coli and purified using Ni^2+-NTA agarose beads. […] Protein-bound radioligand was separated from unbound ligand by absorption to an ion-exchange matrix ([13], [51]) (Fig. 2A).
(§7) Schematic representation of the workflow of the in vitro lipid binding assay. Purified proteins (blue, 100 pmol), different concentrations of radiolabeled [^3H]-cholesterol (green, 0–400 pmol) are incubated together to allow binding. Proteins were separated from unbound ligand by adsorption to an ion exchange matrix (gray), followed by washing steps. The protein-bound ligand is then eluted and quantified by liquid scintillation counting. Nonspecific binding is assessed in parallel by performing the assay in the absence of protein.
(§8) The in vitro radioligand binding assay was performed essentially as previously described ([13], [39]). Purified proteins (100 pmol) were incubated with 100 to 400 pmol of [^3H]-cholesterol (1 mCi/ml, specific activity 50 Ci/mmol; American Radiolabeled Chemicals, Inc), in binding buffer for 1 h at 30 °C. The pH of the binding buffer was adjusted based on the isoelectric point of the protein: for Pry1 and Osh4, 20 mM Tris (pH 7.5), 30 mM NaCl; for STARD1, the same buffer at pH 8.5; and for NPC2, 20 mM potassium acetate (pH 5.5), 30 mM NaCl.
(§9) Proteins were then separated from unbound ligand by adsorption to SP Sepharose (GE Healthcare) beads for NPC2, and to Q Sepharose beads (GE Healthcare) beads for all other proteins. Beads were washed and proteins were eluted with binding buffer containing 1 M NaCl. Protein-bound radioligand was quantified by scintillation counting. Ion exchange beads without protein were used to define nonspecific binding. Data were analyzed using Prism software (GraphPad) and are presented as the mean ± SD from three independent experiments.

Osh4 [3] = biological target: T1, Osh4; assay: as above; details: Osh4, pH 7.5, 100 pmol protein
From the text: as §6, §7, §8, §9

Pry1 [4] = biological target: T2, Pry1; assay: as above; details: Pry1, pH 7.5, 100 pmol protein
From the text: as §6, §7, §8, §9

StARkin domain of Lam6 = biological target: T11, StARkin domain of Lam6 (Saccharomyces cerevisiae, UniProt Q08001); assay: MST protein-liposome binding; details: Fig. 7F, StARkin domain of Lam6, DOPC/DOPE 80/20 mol% liposomes
T11 construct: Lam6^StARkin (401–579 aa, 22 kDa); made in house; host or cells: Lactococcus lactis DML1
T11 sequence (Q08001 401-579): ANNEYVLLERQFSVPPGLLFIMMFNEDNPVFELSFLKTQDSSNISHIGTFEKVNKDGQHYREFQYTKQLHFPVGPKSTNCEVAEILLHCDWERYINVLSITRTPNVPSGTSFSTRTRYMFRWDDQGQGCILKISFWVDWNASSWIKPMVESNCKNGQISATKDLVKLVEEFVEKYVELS
Description: To test whether the GRAM domain of Lam6 could function as a coincidence detector recognizing both PS and ergosterol simultaneously, as observed with the GRAM domain of Aster-B/GRAM1b, we assessed liposome binding by isolated GRAM and StARkin domains ([58], [60]).
Lipids were dried from chloroform stock solutions using a rotary evaporator or under a gentle nitrogen gas stream. The dried lipid film was resuspended in 1 ml liposome buffer (25 mM Tris (pH 7.5), 50 mM NaCl) to a final concentration of 2 mM phospholipids. The phospholipid suspension was then subjected to ten freeze-thaw cycles, alternating between liquid nitrogen and a 55 °C water bath.
The resulting multilamellar liposomes were extruded nineteen times through a polycarbonate filter of 0.8 μm pore size to generate large unilamellar vesicles.

T6 sequence (P38800 758-930): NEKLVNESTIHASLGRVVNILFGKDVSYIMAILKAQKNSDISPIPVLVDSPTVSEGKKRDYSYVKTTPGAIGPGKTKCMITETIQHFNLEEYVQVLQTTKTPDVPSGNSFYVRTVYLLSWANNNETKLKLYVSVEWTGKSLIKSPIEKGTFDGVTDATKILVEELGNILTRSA
T7 sequence (P38800 967-1139): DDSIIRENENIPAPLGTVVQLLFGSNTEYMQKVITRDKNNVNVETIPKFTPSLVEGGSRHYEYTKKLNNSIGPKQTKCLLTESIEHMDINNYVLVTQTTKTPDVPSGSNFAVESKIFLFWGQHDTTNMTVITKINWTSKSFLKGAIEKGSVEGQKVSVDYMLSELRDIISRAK

Compound: CC(C)CCC[C@@H](C)[C@H]1CC[C@H]2[C@@H]3CC=C4C[C@@H](OS(=O)(=O)O)CC[C@]4(C)[C@H]3CC[C@]12C [cholesterol sulfate]
Kd (Osh4 [1]): 1690 nM
Kd (Pry1 [2]): 1750 nM
Kd (STARD1): 64 nM
Kd (Lam5 (ΔTMD)): 290 nM
Kd (Lam6 (ΔTMD)): 90 nM
Kd (Lam4^StARkin1): 71 nM
Kd (Lam4^StARkin2): 340 nM
Kd (Ysp1^StARkin): 47 nM
Kd (Sip3^StARkin): 530 nM

Kd (NPC2): 1600 nM
Kd (Osh4 [3]): 2300 nM
Kd (Pry1 [4]): 2400 nM
Compound: CC(C)CCC[C@@H](C)[C@H]1CC[C@H]2[C@@H]3CC=C4C[C@@H](O)CC[C@]4(C)[C@H]3CC[C@]12C [cholesterol]

Compound: CC(C)[C@@H](C)/C=C/[C@@H](C)[C@H]1CC[C@H]2C3=CC=C4C[C@@H](O)CC[C@]4(C)[C@H]3CC[C@]12C [ergosterol]
Kd (StARkin domain of Lam6): 8600 ± 3400 nM

From publication PMC12493155, “A yeast-based in vivo assay complements in vitro and in silico approaches to characterize sterol-binding by Saccharomyces cerevisiae Lam/Ltc proteins” (The Journal of Biological Chemistry, 2025)
